In patent publication US20180256489A1, “NATURAL FORMULATIONS” (priority 2010, published 2018):

Tests used:
[1] = Foaming by shaking in a covered glass cylinder; type: physicochemical; conditions: Table 5; 1 wt % calculated saponins in distilled water
Description: (§1) Foaming properties of a solution of 1 wt % of the extract of the invention in water were measured by shaking 10 ml of the solution five times in a 100 ml covered glass cylinder. The volume of the generated foam was measured. Another method for measuring the foaming was performed by Moulinex LM240 blender at a maximum speed of 10 seconds for 80 ml solution. The generated foam was transferred to glass cylinder and measured. The same procedure was repeated with extracts obtained by various ethanol/water mixtures. Foaming—solution of 1 wt % of the extract in water was shaken five times in a glass cylinder as described above. The volume of the generated foam was measured. Another method for measuring the foaming was performed by Moulinex LM240 blender at a maximum speed of 10 seconds for 80 ml solution and measured in a glass cylinder, and the foaming results are detailed in Table 4 below.

[2] = Foaming by Moulinex LM240 blender; type: physicochemical; conditions: Table 5; 1 wt % calculated saponins in distilled water
Description: as §1

[3] = tested on: erythrocytes of sheep blood; test: Haemolysis test (model for eye irritation); type: cell-based; conditions: 50% haemolysis, 30 minutes in ice, 540 nm
Description: Haemolysis test (which serves as a model for eye irritation) was conducted in order to determine the safety of the products of the invention in comparison to the commercial surfactant SLES (sodium lauryl ether sulfate).
Preparation of the erythrocyte suspension: erythrocytes of sheep blood were separated by centrifugation at 1250g, for 15 minutes at room temperature, washed three times with phosphate-buffered saline solution (PBS, pH 7.4), and centrifuged twice under the same condition. The blood volume was completed with PBS. This suspension was maintained at 4° C. for up to three days.
The assay procedure: 20 μl of each sample were diluted up to 2 ml of the suspension, and were incubated with for 30 minutes in ice. The incubation was terminated by a rapid, high-speed (1800 g) centrifugation for 30 minutes. The extent of haemolysis was determined in spectrophotometrically at 540 nm against a blank (PBS). The extent of haemolysis, expressed as a percentage, was calculated as the absorbance of an erythrocyte suspension incubated with each product, relative to that of a completely haemolysed control (100%, at distilled water) at 540 nm. The Hm50 (50% haemolysis) was determined from concentration—response curves.

In the case of “decyl glycoside [1 wt % Decyl glycoside]”, the “Foam volume by shaking” value [1] was 57 (±5) ml and the “Foam volume by blender” value [2] was 420 (±15) ml.
With sodium lauryl ether sulfate [SLES] the HM50 [3] was 0.001 gram/100 ml.
